# Test system: GR
# Assay: GR transactivation, MMTV (pHHLuc) luciferase reporter in AD293 cells
# Type: cell-based
# Details: Dexamethasone 1 nM, 10 nM, 100 nM and 1 μM with or without Concanamycin A 1 nM, FIG. 2
# Description: (§1) AD293 cells in 24 wells plate were transfected with 0.1 ng GR, 100 ng pHHLuc reporter together with 10 ng Renilla control plasmids in each well, then induced by EtOH (vehicle control), Dexamethasone (1 nM, 10 nM, 100 nM and 1 μM), with or without Bafilomycin A1 (100 nM). Dual-Luciferase values were measured by Promega standard manual.
# as §1, with “Concanamycin A (1” for “Bafilomycin A1 (100”
# FIG. 8 is a graph showing a summary of V-ATPase inhibitors in enhancing GR-Dex activity on MMTV (pHHLuc) reporter in AD293 cells. AD293 cells in 24 wells plate were transfected with 0.1 ng GR, 100 ng pHHLuc reporter together with 10 ng Renilla control plasmids in each well, then induce by EtOH (vehicle control), Dexamethasone (10 nM), with different V-ATPase inhibitors (Bafilomycin A1 100 nM; Concanamycin A 1 nM; Lobatamide A 100 nM) or vehicle control. Dual-Luciferase values were measured by Promega standard manual.
compound,measurement,value
"C/C=C/C1OC(O)(C(C)C(O)C(C)C2OC(=O)/C(OC)=C/C(C)=C/C(C)C(O)C(CC)C(O)C(C)C/C(C)=C/C=C/C2OC)CC(OC2CC(O)C(OC(N)=O)C(C)O2)C1C (stereo not shown) [Concanamycin A, 6-(2-(4-((4E,6E,14E,16Z)-11-ethyl-10,12-dihydroxy-3,17-dimethoxy-7,9,13,15-tetramethyl-18-oxooxacyclooctadeca-4,6,14,16-tetraen-2-yl)-3-hydroxypentan-2-yl)-2-hydroxy-5-methyl-6-((E)-prop-1-enyl)tetrahydro-2H-pyran-4-yloxy)-4-hydroxy-2-methyltetrahydro-2H-pyran-3-yl carbamate]",GR-dex dose-response of induction on MMTV (pHHLuc) reporter (GR transactivation),synergizes with Dex
